Assay results: the supplement of paper PMC13380429
Structures can show the parent of a compound that is named as a salt.

Legend:
Settings in all cases: 72 h
Vero E6 [1] = experiment: cell viability relative to DMSO; higher = less toxic
Caco-2 [2] = experiment: as above
HepG2 [3] = experiment: as above
Calu-3 [4] = experiment: as above
U2OS [5] = experiment: as above
Vero E6 [6] = experiment: drug sensitivity score (DSS) for viability; higher = more toxic; extreme values may be limits of the assay
Caco-2 [7] = experiment: as above
HepG2 [8] = experiment: as above
Calu-3 [9] = experiment: as above
U2OS [10] = experiment: as above
Vero E6 [11] = experiment: relative viability EC50 (midpoint between 100% and the lowest measured viability); higher = less toxic
Caco-2 [12] = experiment: as above
HepG2 [13] = experiment: as above
Calu-3 [14] = experiment: as above
U2OS [15] = experiment: as above

Structure (SMILES)	cell viability (Vero E6 [1]; 1 nM)	cell viability (Vero E6 [1]; 10 nM)	cell viability (Vero E6 [1]; 100 nM)	cell viability (Vero E6 [1]; 1000 nM)	cell viability (Vero E6 [1]; 10000 nM)	cell viability (Caco-2 [2]; 1 nM)	cell viability (Caco-2 [2]; 10 nM)	cell viability (Caco-2 [2]; 100 nM)	cell viability (Caco-2 [2]; 1000 nM)	cell viability (Caco-2 [2]; 10000 nM)	cell viability (HepG2 [3]; 1 nM)	cell viability (HepG2 [3]; 10 nM)	cell viability (HepG2 [3]; 100 nM)	cell viability (HepG2 [3]; 1000 nM)	cell viability (HepG2 [3]; 10000 nM)	cell viability (Calu-3 [4]; 1 nM)	cell viability (Calu-3 [4]; 10 nM)	cell viability (Calu-3 [4]; 100 nM)	cell viability (Calu-3 [4]; 1000 nM)	cell viability (Calu-3 [4]; 10000 nM)	cell viability (U2OS [5]; 1 nM)	cell viability (U2OS [5]; 10 nM)	cell viability (U2OS [5]; 100 nM)	cell viability (U2OS [5]; 1000 nM)	cell viability (U2OS [5]; 10000 nM)	drug sensitivity score (Vero E6 [6])	drug sensitivity score (Caco-2 [7])	drug sensitivity score (HepG2 [8])	drug sensitivity score (Calu-3 [9])	drug sensitivity score (U2OS [10])	relative viability EC50 (Vero E6 [11])	relative viability EC50 (Caco-2 [12])	relative viability EC50 (HepG2 [13])	relative viability EC50 (Calu-3 [14])	relative viability EC50 (U2OS [15])
CCC[C@H](NC(=O)[C@@H]1[C@H]2CCC[C@H]2CN1C(=O)[C@@H](NC(=O)[C@@H](NC(=O)c1cnccn1)C1CCCCC1)C(C)(C)C)C(=O)C(=O)NC1CC1 [telaprevir]	100%	103%	98.9%	105%	99%	101%	93.1%	95.6%	102%	91.5%	115%	108%	98.8%	107%	87%	106%	88.1%	101%	93.6%	97.6%	99.2%	97.9%	102%	98.8%	93.9%	0	0	0	0	0	> 10 µM	> 10 µM	> 10 µM	> 10 µM	> 10 µM
O=C(Cc1ccc(-c2ccc(OCCN3CCOCC3)cc2)cn1)NCc1ccccc1 [KX2-391]	91.7%	93.2%	88.3%	24.5%	27.2%	102%	92.3%	91.7%	45.3%	39.2%	107%	113%	80.8%	34.5%	38.5%	96.8%	90.8%	82.8%	54.5%	42%	97.5%	94.8%	96.4%	24.5%	19.5%	15.8	11.2	14.9	10.4	14.3	0.196 µM	0.284 µM	0.143 µM	0.222 µM	0.339 µM
NCCCCCC(O)(P(=O)(O)O)P(=O)(O)O [neridronic-acid]	91.5%	95.8%	92.8%	94.2%	96.8%	108%	95%	88.9%	107%	76.5%	100%	110%	111%	97.9%	86.2%	90.2%	83.3%	92%	93.9%	106%	99.9%	95.9%	98.8%	92.8%	108%	0	0.6	0.3	0	0	> 10 µM	> 10 µM	> 10 µM	> 10 µM	> 10 µM
Cn1nc(C(C)(C)C)cc1C(=O)N[C@@H](Cc1cccc(Cl)c1)C(=O)NCC#N [cathepsin-inhibitor-1]	95%	99.3%	102%	96.2%	98.4%	99.8%	99.3%	86.7%	93.5%	92.3%	94%	103%	112%	90.8%	98.4%	103%	89.1%	105%	94.9%	91.8%	97.7%	99.1%	92.8%	94.2%	90.9%	0	0	0	0	0	> 10 µM	> 10 µM	> 10 µM	> 10 µM	> 10 µM
CCOC(=O)c1c(CSc2ccccc2)n(C)c2cc(Br)c(O)c(CN(C)C)c12 [arbidol]	92.9%	96.6%	92%	104%	101%	94.9%	88.1%	94.4%	96.7%	88.2%	96%	104%	108%	104%	97.2%	94.5%	96.7%	96%	96.8%	81.6%	98.3%	92.8%	96.8%	92.4%	93.8%	0	0	0	0.9	0	> 10 µM	> 10 µM	> 10 µM	> 10 µM	> 10 µM
O=C(O[C@H]1[C@H](OC(=O)c2cccnc2)[C@@H](OC(=O)c2cccnc2)[C@H](OC(=O)c2cccnc2)[C@@H](OC(=O)c2cccnc2)[C@H]1OC(=O)c1cccnc1)c1cccnc1 [inositol-hexanicotinate]	105%	102%	90.9%	93.7%	113%	92.2%	88.9%	103%	89.3%	91.2%	90.9%	112%	89.1%	96.5%	94.6%	102%	93.3%	100%	103%	110%	92.4%	90.5%	99%	98.5%	99.4%	0	0	0	0	0	> 10 µM	> 10 µM	> 10 µM	> 10 µM	> 10 µM
C=CCN1CC[C@]23c4c5ccc(O)c4O[C@H]2C(=O)CC[C@@]3(O)[C@H]1C5 [NALOXONE HYDROCHLORIDE]	99%	103%	104%	95.9%	100%	98%	94.7%	101%	100%	104%	106%	97.9%	102%	95.9%	103%	94.5%	94.4%	88.5%	91%	99.6%	103%	99.7%	102%	103%	100%	0	0	0	0	0	> 10 µM	> 10 µM	> 10 µM	> 10 µM	> 10 µM
CN(CCOP(=O)(O)O)C(=N)N [creatinol-phosphate]	103%	97.8%	98.4%	104%	97.8%	102%	99.5%	93.6%	101%	90.7%	88.7%	94.6%	101%	105%	92.4%	104%	94.2%	105%	92.8%	98.5%	92.5%	95.6%	94.7%	93.3%	93.4%	0	0	0	0	0	> 10 µM	> 10 µM	> 10 µM	> 10 µM	> 10 µM
O=C(OCCN1CCOCC1)c1cccnc1Nc1cccc(C(F)(F)F)c1 [morniflumate]	107%	100%	102%	105%	99.3%	120%	103%	99%	102%	80.1%	90.8%	93.8%	87.3%	94.7%	88.4%	91.9%	97.1%	102%	106%	108%	96.5%	104%	97.8%	97.8%	97.3%	0	0.5	0	0	0	> 10 µM	> 10 µM	> 10 µM	> 10 µM	> 10 µM
NS(=O)(=O)c1cc2c(cc1Cl)N=CNS2(=O)=O [chlorothiazide]	97.8%	103%	96.3%	96.8%	96.7%	92.4%	99.8%	95.3%	91%	86.6%	102%	102%	95.9%	97.8%	99%	85.8%	88.9%	103%	102%	96.6%	98.1%	102%	96.6%	106%	99%	0	0.1	0	0	0	> 10 µM	> 10 µM	> 10 µM	> 10 µM	> 10 µM
